This passage reports IC50 results from patent publication US8653091B2, “Pyrid-2yl fused heterocyclic compounds, and compositions and uses thereof” (Evotec AG, priority 2007, dated 2014).

pIC50: −log10 of the molar value.

A word on the pIC50: it is the negative decadic logarithm of the IC50, by convention in mol/L.

P2X3, sequence (P56373 whole entry): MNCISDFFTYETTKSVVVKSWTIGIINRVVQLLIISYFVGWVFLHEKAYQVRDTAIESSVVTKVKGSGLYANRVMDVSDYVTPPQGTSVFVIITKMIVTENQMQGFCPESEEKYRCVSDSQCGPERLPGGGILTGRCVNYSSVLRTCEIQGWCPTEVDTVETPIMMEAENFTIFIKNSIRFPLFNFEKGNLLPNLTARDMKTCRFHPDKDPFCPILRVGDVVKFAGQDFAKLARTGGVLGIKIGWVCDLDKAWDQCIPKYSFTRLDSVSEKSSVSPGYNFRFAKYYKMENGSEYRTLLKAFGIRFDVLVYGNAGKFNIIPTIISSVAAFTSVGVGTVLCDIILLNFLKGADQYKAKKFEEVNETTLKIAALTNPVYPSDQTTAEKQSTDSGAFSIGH
P2X2/3, sequence (Q9UBL9 whole entry): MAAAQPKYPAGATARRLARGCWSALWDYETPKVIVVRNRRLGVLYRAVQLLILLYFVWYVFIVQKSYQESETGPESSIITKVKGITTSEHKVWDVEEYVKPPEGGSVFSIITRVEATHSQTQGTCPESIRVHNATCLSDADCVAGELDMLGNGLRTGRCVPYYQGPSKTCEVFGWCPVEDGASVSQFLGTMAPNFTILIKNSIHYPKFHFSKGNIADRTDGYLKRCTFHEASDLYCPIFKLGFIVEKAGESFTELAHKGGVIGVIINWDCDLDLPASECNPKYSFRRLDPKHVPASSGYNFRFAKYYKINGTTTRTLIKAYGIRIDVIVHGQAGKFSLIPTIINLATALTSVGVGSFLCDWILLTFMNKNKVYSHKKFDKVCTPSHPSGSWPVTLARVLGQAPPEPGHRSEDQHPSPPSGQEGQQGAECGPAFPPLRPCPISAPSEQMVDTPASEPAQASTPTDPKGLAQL
P2X2/3, sequence (P56373 whole entry): as the sequence (P56373 whole entry) above

The first assay has as its target P2X2/3 (Homo sapiens (Human), UniProt P56373+Q9UBL9). The assay is described as follows: Calcium uptake assay (P2X antagonist assay), P2X2/3. In kind it is cell-based. Particulars: inhibition of agonist-induced calcium influx. From the text: (§1) Human P2X3 (Accession no. NM_002559), P2X2 (Accession no. NM_170682) and Rat P2X3 (Accession no. NM_031075) and P2X2 (Accession no. NM_053656) are cloned into a mammalian expression vector (e.g., pcDNA5/TO or pcDNA3 Invitrogen). The human P2X2/3 chimera clone is created as described by Neelands et al, and then cloned into an expression vector as above. Receptors are expressed in cells (e.g., HEK293 or 1321N1 (obtained from the ECACC)) via transient transfection using standard lipid mediated transfection, or by creation of stable transfectants for each receptor. For expression of the P2X2/3 heteromeric receptor, the P2X3 expression vector is stably transfected into a cell line already stably expressing P2X2. P2X2/3 heteromer function is isolated using pharmacological methods. Cell lines are maintained in DMEM+5% Glutamax, the appropriate level of selective antibiotic, and 10% heat inactivated FBS.
(§2) Functional activity of compounds at the P2X receptor is determined by measuring their ability to inhibit agonist-induced calcium influx. Compounds are tested for antagonist activity against the P2X2/3 chimera, the P2X3 homomer, or the P2X2/3 heteromer. At the start of each screening day, the agonist EC50 is determined. Compound % inhibition or IC50s are subsequently determined using a pre-determined agonist concentration (EC50-90 depending on cell line) as a stimulus. The agonists used are αβMeATP, ATP, or other ATP analogs. Compounds may be tested at concentrations ranging from 1 μM to 10 μM.
(§3) To test for antagonist activity, cells expressing the appropriate receptor are seeded onto 96 or 384 well plates 18-24 hours prior to assay. On the day of the assay, cells are loaded with calcium-sensitive fluorescent dye (e.g., Fluo-4 no wash reagent-Invitrogen cat#F36206, or the BD™ PBX Calcium Assay Kit—BD cat#640175) in Hank's Buffered Salt Solution (HESS) with up to 10 mM supplemental CaCl2. Plates are incubated at 37° C. and then equilibrated at room temperature. Antagonism of agonist-induced calcium influx is measured using a fluorescent imaging plate reader (e.g. FLIPR^TETRA, Molecular Devices, Sunnyvale, Calif.). The assay comprises two stages: a pre-treatment phase followed by a treatment phase. Compounds may be tested as follows: For the pre-treatment phase, 50 μL of 3× concentration of test compound in HBSS is added to cells containing 100 μL of dye loading media to achieve a final concentration of 1× test compound. For the treatment phase, at a set interval after pre-treatment (1-30 minutes), 50 μL of 1× test compound plus […] solution is added, resulting in a final concentration of 1× compound and 1× agonist. Fluorescence is measured at 0.1-3 second intervals—with an excitation wavelength of 494 nm and an emission wavelength of 515 nm. Responses are measured as (peak fluorescence after agonist addition) minus (baseline fluorescence prior to treatment). Percent inhibition is calculated as follows: […]
(§4) IC50 values are determined by analyzing dose response data in a 4 parameter logistic fit using GraphPad Prizm.
With `Cc1ccc(N2CCc3ncnc(NC(C)c4cccc(F)c4)c3C2)nc1` (stereo not shown) [Compound 2, [1-(3-Fluoro-phenyl)-ethyl]-[6-(5-methyl-pyridin-2-yl)-5,6,7,8-tetrahydro-pyrido[4,3-d]pyrimidin-4-yl]-amine], the pIC50 is 5.61.
Still for that read-out and setting: with `Cc1ccc(N2CCc3ncnc(NC(C)c4ccc(S(C)(=O)=O)cc4)c3C2)nc1` (stereo not shown) [Compound 5, [1-(4-Methanesulfonyl-phenyl)-ethyl]-[6-(5-methyl-pyridin-2-yl)-5,6,7,8-tetrahydro-pyrido[4,3-d]pyrimidin-4-yl]-amine] the figure was 5.37.
In the case of `Cc1ccc(N2CCc3ncnc(N[C@H](C)c4ccc(Cl)cc4)c3C2)nc1` [Compound 7, [(R)-1-(4-Chloro-phenyl)-ethyl]-[6-(5-methyl-pyridin-2-yl)-5,6,7,8-tetrahydro-pyrido[4,3-d]pyrimidin-4-yl]-amine], the pIC50 was 5.72.
Take `Cc1ccc(N2CCc3ncnc(N[C@H](C)c4ccccc4)c3C2)nc1` [Compound 8, [6-(5-Methyl-pyridin-2-yl)-5,6,7,8-tetrahydro-pyrido[4,3-d]pyrimidin-4-yl]-((R)-1-phenyl-ethyl)-amine]: the pIC50 was 5.60.
On the same count and under the same terms, in the case of `FC(F)(F)c1ccc([C@@H](Nc2ncnc3c2CN(c2ccc(Cl)cn2)CC3)C2CC2)cn1` [Compound 54, [6-(5-Chloro-pyridin-2-yl)-5,6,7,8-tetrahydro-pyrido[4,3-d]pyrimidin-4-yl]-[(S)-cyclopropyl-(6-trifluoromethyl-pyridin-3-yl)-methyl]-amine] it was less than 5.00.

The next assay has as its target P2X3 (Homo sapiens (Human), UniProt P56373). In words: Calcium uptake assay (P2X antagonist assay), P2X3. It counts as cell-based. Particulars: inhibition of agonist-induced calcium influx.
From the text: as §1, §2, §3, §4
As for `Cc1ccc(N2CCc3ncnc(NC(C)c4cccc(F)c4)c3C2)nc1` (stereo not shown) [Compound 2, [1-(3-Fluoro-phenyl)-ethyl]-[6-(5-methyl-pyridin-2-yl)-5,6,7,8-tetrahydro-pyrido[4,3-d]pyrimidin-4-yl]-amine], the pIC50 is 7.25.
Same read-out and setting: in the case of `Cc1ccc(N2CCc3ncnc(NC(C)c4cccc(C(F)(F)F)c4)c3C2)nc1` (stereo not shown) [Compound 4, [6-(5-Methyl-pyridin-2-yl)-5,6,7,8-tetrahydro-pyrido[4,3-d]pyrimidin-4-yl]-[1-(3-trifluoromethyl-phenyl)-ethyl]-amine] it was 6.52; in that of `Cc1ccc(N2CCc3ncnc(NC(C)c4ccc(S(C)(=O)=O)cc4)c3C2)nc1` (stereo not shown) [Compound 5, [1-(4-Methanesulfonyl-phenyl)-ethyl]-[6-(5-methyl-pyridin-2-yl)-5,6,7,8-tetrahydro-pyrido[4,3-d]pyrimidin-4-yl]-amine], 6.89.
Still for that read-out and setting: with `Cc1ccc(N2CCc3ncnc(N[C@@H](C)c4ccc(Cl)cc4)c3C2)nc1` [Compound 6, [(S)-1-(4-Chloro-phenyl)-ethyl]-[6-(5-methyl-pyridin-2-yl)-5,6,7,8-tetrahydro-pyrido[4,3-d]pyrimidin-4-yl]-amine] the figure was less than 5.14; with `Cc1ccc(N2CCc3ncnc(N[C@H](C)c4ccc(Cl)cc4)c3C2)nc1` [Compound 7, [(R)-1-(4-Chloro-phenyl)-ethyl]-[6-(5-methyl-pyridin-2-yl)-5,6,7,8-tetrahydro-pyrido[4,3-d]pyrimidin-4-yl]-amine], 7.32; with `Cc1ccc(N2CCc3ncnc(N[C@H](C)c4ccccc4)c3C2)nc1` [Compound 8, [6-(5-Methyl-pyridin-2-yl)-5,6,7,8-tetrahydro-pyrido[4,3-d]pyrimidin-4-yl]-((R)-1-phenyl-ethyl)-amine], 7.14.
As for `Cc1ccc(N2CCc3ncnc(NC(C)c4ccncc4)c3C2)nc1` (stereo not shown) [Compound 9, [6-(5-Methyl-pyridin-2-yl)-5,6,7,8-tetrahydro-pyrido[4,3-d]pyrimidin-4-yl]-(1-pyridin-4-yl-ethyl)-amine], the pIC50 is 6.67.
On the same count and under the same terms, in the case of `CCc1ccc(C(C)Nc2ncnc3c2CN(c2ccc(C)cn2)CC3)cc1` (stereo not shown) [Compound 13, [1-(4-Ethyl-phenyl)-ethyl]-[6-(5-methyl-pyridin-2-yl)-5,6,7,8-tetrahydro-pyrido[4,3-d]pyrimidin-4-yl]-amine] it was 6.22; in that of `COc1ccccc1C(C)Nc1ncnc2c1CN(c1ccc(C)cn1)CC2` (stereo not shown) [Compound 14, [1-(2-Methoxy-phenyl)-ethyl]-[6-(5-methyl-pyridin-2-yl)-5,6,7,8-tetrahydro-pyrido[4,3-d]pyrimidin-4-yl]-amine], 6.86.
Same read-out and setting: in the case of `Cc1ccc(N2CCc3ncnc(NC(C)c4ccccc4Cl)c3C2)nc1` (stereo not shown) [Compound 15, [1-(2-Chloro-phenyl)-ethyl]-[6-(5-methyl-pyridin-2-yl)-5,6,7,8-tetrahydro-pyrido[4,3-d]pyrimidin-4-yl]-amine] it was 6.90; in that of `Cc1ccc(N2CCc3ncnc(NC(C)c4cccc(Cl)c4)c3C2)nc1` (stereo not shown) [Compound 16, [1-(3-Chloro-phenyl)-ethyl]-[6-(5-methyl-pyridin-2-yl)-5,6,7,8-tetrahydro-pyrido[4,3-d]pyrimidin-4-yl]-amine], 6.92; in that of `Cc1ccc(N2CCc3ncnc(NC(C)c4ccc(C(F)(F)F)cc4)c3C2)nc1` (stereo not shown) [Compound 26, [6-(5-Methyl-pyridin-2-yl)-5,6,7,8-tetrahydro-pyrido[4,3-d]pyrimidin-4-yl]-[1-(4-trifluoromethyl-phenyl)-ethyl]-amine], 6.61.
The same measure, in the same setting: in the case of `Cc1ccc(N2CCc3ncnc(NC(C)c4ccc(Cl)cc4Cl)c3C2)nc1` (stereo not shown) [Compound 27, [1-(2,4-Dichloro-phenyl)-ethyl]-[6-(5-methyl-pyridin-2-yl)-5,6,7,8-tetrahydro-pyrido[4,3-d]pyrimidin-4-yl]-amine] it was 6.38; in that of `Cc1ccc(N2CCc3ncnc(NC(C)c4ccc(Br)cc4)c3C2)nc1` (stereo not shown) [Compound 28, [1-(4-Bromo-phenyl)-ethyl]-[6-(5-methyl-pyridin-2-yl)-5,6,7,8-tetrahydro-pyrido[4,3-d]pyrimidin-4-yl]-amine], 6.67.
As for `CCC(Nc1ncnc2c1CN(c1ccc(C)cn1)CC2)c1ccccc1` (stereo not shown) [Compound 36, [6-(5-Methyl-pyridin-2-yl)-5,6,7,8-tetrahydro-pyrido[4,3-d]pyrimidin-4-yl]-(1-phenyl-propyl)-amine], the pIC50 is 6.40.
On to `Cc1ccc(N2CCc3ncnc(N[C@H](CO)c4ccccc4)c3C2)nc1` [Compound 37, (S)-2-[6-(5-Methyl-pyridin-2-yl)-5,6,7,8-tetrahydro-pyrido[4,3-d]pyrimidin-4-ylamino]-2-phenyl-ethanol], for which the pIC50 is 6.79.
Same read-out and setting: in the case of `C[C@@H](Nc1ncnc2c1CN(c1ccc(Cl)cn1)CC2)c1ccc(Cl)cc1` [Compound 40, [(R)-1-(4-Chloro-phenyl)-ethyl]-[6-(5-chloro-pyridin-2-yl)-5,6,7,8-tetrahydro-pyrido[4,3-d]pyrimidin-4-yl]-amine] it was 6.46; in that of `CC[C@@H](Nc1ncnc2c1CN(c1ccc(C)cn1)CC2)c1ccccc1` [Compound 42], 6.39; in that of `COc1ccc([C@@H](C)Nc2ncnc3c2CN(c2ccc(C)cn2)CC3)cc1` [Compound 43, [(R)-1-(4-Methoxy-phenyl)-ethyl]-[6-(5-methyl-pyridin-2-yl)-5,6,7,8-tetrahydro-pyrido[4,3-d]pyrimidin-4-yl]-amine], 6.74.
Turning to `CC[C@H](Nc1ncnc2c1CN(c1ccc(C)cn1)CC2)c1ccccc1` [Compound 45, [6-(5-Methyl-pyridin-2-yl)-5,6,7,8-tetrahydro-pyrido[4,3-d]pyrimidin-4-yl]-((S)-1-phenyl-propyl)-amine], the pIC50 is less than 5.00.
The same measure, in the same setting: with `C[C@H](Nc1ncnc2c1CN(c1ccc(Cl)cn1)CC2)c1ccc(C(F)(F)F)nc1` [Compound 51, (S)-6-(5-Chloropyridin-2-yl)-N-(1-(6-(trifluoromethyl)pyridin-3-yl)ethyl)-5,6,7,8-tetrahydropyrido[4,3-d]pyrimidin-4-amine] the figure was less than 5.00; with `C[C@@H](Nc1ncnc2c1CN(c1ccc(Cl)cn1)CC2)c1ccc(C(F)(F)F)nc1` [Compound 52, [6-(5-Chloro-pyridin-2-yl)-5,6,7,8-tetrahydro-pyrido[4,3-d]pyrimidin-4-yl]-[(R)-1-(6-trifluoromethyl-pyridin-3-yl)-ethyl]-amine], 7.48; with `FC(F)(F)c1ccc([C@H](Nc2ncnc3c2CN(c2ccc(Cl)cn2)CC3)C2CC2)cn1` [Compound 53, [6-(5-Chloro-pyridin-2-yl)-5,6,7,8-tetrahydro-pyrido[4,3-d]pyrimidin-4-yl]-[(R)-cyclopropyl-(6-trifluoromethyl-pyridin-3-yl)-methyl]-amine], 5.45.
